Data as given in paper PMC4740303, “The Sigma-2 Receptor and Progesterone Receptor Membrane Component 1 are Different Binding Sites Derived From Independent Genes” (EBioMedicine, 2015).
Positions count from the first letter of the chain named. “Also recorded” adds a separate entry of the source.

How the values were obtained:
PGRMC1 [1] = tested on: PGRMC1; design: method as in Xu et al., 2011; conditions: ref Xu et al., 2011, cited from earlier work
S1R [2] = molecular target: T1, S1R (Mus musculus, UniProt O55242); assay: [^125I]-IAF photolabeling of the S1R in NSC34 cell membranes; type: binding; conditions: NSC34 membranes (control and PGRMC1 knockout)
T1 construct: membranes prepared from control and PGRMC1 knockout (clones 38 and 207) NSC34 cells; endogenous in cells; host or cells: NSC34 cells (control and PGRMC1 knockout clones 38 and 207)
T1 sequence (O55242 whole entry): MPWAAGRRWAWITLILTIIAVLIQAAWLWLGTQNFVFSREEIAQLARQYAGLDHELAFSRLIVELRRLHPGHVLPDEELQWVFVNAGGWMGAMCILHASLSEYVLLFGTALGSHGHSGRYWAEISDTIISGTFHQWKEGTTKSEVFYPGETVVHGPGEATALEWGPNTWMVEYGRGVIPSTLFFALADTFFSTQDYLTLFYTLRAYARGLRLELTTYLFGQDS
Method: (§1) Cell membrane preparation was performed following our established method ([Guo et al., 2012]). Briefly, cell pellets were suspended in PBS and sonicated on ice using the following settings: 5 sets (10 strokes/set) at duty cycle = 50, output control = 5. Cell homogenates were centrifuged at 8000 × g for 10 min, and the resulting supernatant was collected and subjected to ultracentrifugation at 100,000 × g for 1 h. The supernatant was discarded and the pellet was gently washed twice with ice-cold PBS. The pellet was then resuspended in PBS and sonicated (3 sets, 10 strokes/set at duty cycle = 50, output control = 5) to homogeneity. Protein concentration was then measured using the standard Bradford reagent (Sigma-Aldrich, St. Louis, MO).
(§2) The synthesis of [^125I]-IAF and photolabeling was performed according to our published method ([Pal et al., 2007]). […] [^125I]-IAF was then added (final 1 nM) and incubated for another 40 min with gentle shaking in the dark. Photoactivation of [^125I]-IAF was performed by exposing the samples to a high-pressure AH-6 mercury lamp for 5 s and Laemmli buffer was immediately added to each sample. The samples were then resolved on a 16 × 18 cm SDS gel with 6–18% acrylamide gradient. The gel was dried and exposed to a phosphor screen for 24–48 h and autoradiograms were recorded using a Phosphoimager (Molecular Dynamics).

S1R [3] = molecular target: T1, S1R; conditions: cited from earlier work; for affinity for the S1R: ref Hellewell et al., 1994
S2R [4] = molecular target: T2, S2R (Mus musculus, UniProt Q8VD00); design: method as in Matsumoto et al., 2014; conditions: competitive [^3H]-DTG binding assays; ref Matsumoto et al., 2014; cited from earlier work
T2 construct: Membranes (28 μg total proteins per reaction) prepared from NSC34 cells of controls, PGRMC1 knockout, or PGRMC1-3 × HA overexpression; endogenous in cells; host or cells: NSC34 cells (control, PGRMC1 knockout clones 38 and 207, PGRMC1-3xHA overexpressing)
T2 sequence (Q8VD00 1-176): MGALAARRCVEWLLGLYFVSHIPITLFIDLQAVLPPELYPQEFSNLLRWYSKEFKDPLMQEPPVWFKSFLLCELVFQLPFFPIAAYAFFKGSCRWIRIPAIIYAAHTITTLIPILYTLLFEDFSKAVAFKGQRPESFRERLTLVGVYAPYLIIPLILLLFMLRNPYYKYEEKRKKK

S2R [5] = molecular target: T3, S2R (Rattus norvegicus, UniProt Q5U3Y7); assay: [^125I]-IAF photolabeling of the S2R in PC12 membranes; type: binding
T3 construct: [^125I]-IAF photolabeling of the S2R in PC12 membranes; endogenous in cells; host or cells: PC12 cells
T3 sequence (Q5U3Y7 1-176): T2 sequence (Q8VD00 1-176) with L4V, A5T, L26M, V33L, L71F, A105V, L118I, V127I, S136N, Y169F
Method: as §1, §2

S1R [6] = molecular target: T1, S1R; design: method as in Matsumoto et al., 2014; conditions: competitive [^3H]-DTG binding assays; ref Matsumoto et al., 2014; cited from earlier work
S2R [7] = molecular target: T2, S2R; conditions: cited from earlier work
S2R [8] = molecular target: T2, S2R; assay: [^125I]-IAF photolabeling of the S2R in NSC34 cell membranes; type: binding; conditions: NSC34 membranes (control and PGRMC1 knockout); 20 μM
Method: as §1, §2

PGRMC1 [9] = molecular target: PGRMC1 (Rattus norvegicus, UniProt P70580); assay: biochemical
Chain of PGRMC1 (Rattus norvegicus, UniProt P70580) (P70580 whole entry): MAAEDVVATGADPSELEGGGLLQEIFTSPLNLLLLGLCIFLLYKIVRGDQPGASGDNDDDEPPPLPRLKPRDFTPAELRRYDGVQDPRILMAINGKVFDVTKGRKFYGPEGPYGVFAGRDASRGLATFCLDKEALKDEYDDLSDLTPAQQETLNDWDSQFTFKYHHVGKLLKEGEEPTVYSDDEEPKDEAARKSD
Method: Liver tissues were homogenized (10 ml buffer/g wet tissue) by 4 bursts of 10 s each using a Brinkman polytron (American Laboratory Trading Inc., East Lyme, CT) on setting 6 in ice-cold sodium phosphate buffer (10 mM pH 7.4) containing 0.32 M sucrose and a cocktail of protease inhibitors (20 μg/ml leupeptin, 5 μg/ml soybean trypsin inhibitor, 100 μM phenylmethylsulfonyl fluoride (PMSF), 100 μM benzamidine and 1 mM EDTA). The membrane suspension after homogenization was centrifuged for 10 min at 17,000 × g and the supernatant was subjected to ultracentrifugation at 100,000 × g for 1 h to collect membrane fractions. The pellet from the second centrifugation was resuspended to a protein concentration of 10 mg/ml in the foregoing buffer, snapped frozen and stored at − 80 °C.
Inhibition of [^3H]-progesterone binding to PGRMC1 was performed according to [Peluso et al. (2008)]. […] After incubation at 37 °C for 60 min, the reaction was terminated by rapid filtration through glass fiber filters, using a Brandel cell harvester and processed as described above. […] Nonspecific binding was monitored in the presence of nonradioactive progesterone at 10 μM and subtracted from total [^3H]-progesterone binding.

S2R [10] = molecular target: T2, S2R; design: method as in Pal et al., 2007; conditions: earlier work of the group; ref Pal et al., 2007; cited from earlier work
S1R [11] = molecular target: T4, S1R (Rattus norvegicus, UniProt Q9R0C9); assay: [^125I]-IAF photolabeling of the S1R in PC12 membranes; type: binding; conditions: 20 μM
T4 construct: endogenous in cells; host or cells: PC12 cells
T4 sequence (Q9R0C9 whole entry): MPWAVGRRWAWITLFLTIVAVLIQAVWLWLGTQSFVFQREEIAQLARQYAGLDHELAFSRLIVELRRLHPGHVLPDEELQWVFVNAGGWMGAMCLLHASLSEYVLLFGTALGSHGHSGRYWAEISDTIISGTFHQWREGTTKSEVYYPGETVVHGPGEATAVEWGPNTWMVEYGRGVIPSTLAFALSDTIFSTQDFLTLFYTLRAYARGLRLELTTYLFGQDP
Method: as §1, §2

S2R [12] = molecular target: T2, S2R; assay: Saturation binding of [^3H]-DTG in NSC34 cell membranes, S1R masked with (+)-pentazocine; conditions: mean ± SEM
Method: as §1

PGRMC1 [13] = conditions: ref Peluso et al., 2008; cited from earlier work
S2R (sigma-2 receptor) = molecular target: T5, S2R (sigma-2 receptor) (Rattus norvegicus, UniProt Q5U3Y7); assay: Inhibition of [^3H]-DTG binding to the S2R in rat liver membranes
T5 construct: Experiments were performed with rat liver membranes; tissue Pel Freez Biologicals; host or cells: rat liver
T5 sequence (Q5U3Y7 1-176): T2 sequence (Q8VD00 1-176) with L4V, A5T, L26M, V33L, L71F, A105V, L118I, V127I, S136N, Y169F
Method: Rat liver membranes, a rich source of sigma-2 receptor, were prepared as described in our previous reports ([Pal et al., 2007], [Guo et al., 2012]) from frozen tissues (Pel Freez Biologicals, Rogers, AR). Liver tissues were homogenized (10 ml buffer/g wet tissue) by 4 bursts of 10 s each using a Brinkman polytron (American Laboratory Trading Inc., East Lyme, CT) on setting 6 in ice-cold sodium phosphate buffer (10 mM pH 7.4) containing 0.32 M sucrose and a cocktail of protease inhibitors (20 μg/ml leupeptin, 5 μg/ml soybean trypsin inhibitor, 100 μM phenylmethylsulfonyl fluoride (PMSF), 100 μM benzamidine and 1 mM EDTA). The membrane suspension after homogenization was centrifuged for 10 min at 17,000 × g and the supernatant was subjected to ultracentrifugation at 100,000 × g for 1 h to collect membrane fractions. The pellet from the second centrifugation was resuspended to a protein concentration of 10 mg/ml in the foregoing buffer, snapped frozen and stored at − 80 °C.

CC(C)=CCN1CC[C@]2(C)c3cc(O)ccc3C[C@H]1[C@H]2C [(+)-pentazocine]
ligand for PGRMC1 (PGRMC1 [1]): not a ligand for PGRMC1
protection of [^125I]-IAF photolabeling of the S1R (26 kDa band) (S1R [2]; 5 μM): protected against [^125I]-IAF photolabeling of the S1R; also recorded: readily protected
affinity for the S1R (S1R [3]): < 10 nM

COc1cc2c(cc1OC)CN(CCCCn1c(=O)n(C)c3ccccc31)CC2 [CM398]
Ki (S2R [4]): 0.43 nM
protection of [^125I]-IAF photolabeling of the S2R (S2R [5]; 1 and 10 μM): selectively blocked the labeling of the S2R
Ki (S1R [6]): 560 nM

O=c1oc2cc(N=C=S)ccc2n1CCCCN1CCN(c2ccc(F)cc2)CC1 [CM572]
type of S2R ligand (S2R [7]; ref Nicholson et al., 2015): irreversible selective affinity label for the S2R

Cc1ccccc1NC(=N)Nc1ccccc1C [DTG, 1,3-di-o-tolylguanidine]
affinity for the S2R (S2R [7]; ref Hellewell et al., 1994): ~ 50 nM
protection of [^125I]-IAF photolabeling of the S2R (~18 kDa band) (S2R [8]): protected against photolabeling of both the S1R and the S2R
protection of photolabeling of PGRMC1 (with WC-21) (PGRMC1 [1]; 1 μM): protected the photolabeling of PGRMC1
protection of [^125I]-IAF photolabeling of the S1R (26 kDa band) (S1R [2]; 20 μM): protected against photolabeling of both the S1R and the S2R
Ki (PGRMC1 [9]): 472000 nM
protection of the [^125I]-IAF photolabeled S2R band (S2R [10]): protected
protection of [^125I]-IAF photolabeling of the S2R (S2R [5]; 20 μM): protected
protection of [^125I]-IAF photolabeling of the S1R (S1R [11]): protected
Kd (S1R [3]; read-out: KD for DTG at the S1R, depending on sources of membranes and assay methods, ref Weber et al., 1986, Quirion et al., 1992, Itzhak and Kassim, 1990, Itzhak, 1987): 20 to 80 nM
affinity for the S1R (S1R [3]): ~ 50 nM

Cc1ccccc1NC(=N)Nc1ccccc1C [[^3H]-DTG, [^3H]-1,3-Di-tolylguanidine]
Bmax (S2R [12]; Control NSC34 cells (expression vector without PGRMC1 gene)): 2.35 ± 0.5 pmol/mg
Bmax (S2R [12]; PGRMC1-HA overexpressing NSC34 cells): 2.5 ± 0.08 pmol/mg

CC(=O)[C@H]1CC[C@H]2[C@@H]3CCC4=CC(=O)CC[C@]4(C)[C@H]3CC[C@]12C [[^3H]-progesterone]
Kd (PGRMC1 [13]): 35 nM

CC(=O)[C@H]1CC[C@H]2[C@@H]3CCC4=CC(=O)CC[C@]4(C)[C@H]3CC[C@]12C [progesterone]
Ki (S2R (sigma-2 receptor)): 14200 ± 4900 nM
Kd (PGRMC1 [13]): 35 nM
